{"source": "paper PMC11638278", "about": "“Ascorbate: a forgotten component in the cytotoxicity of Cu(II) ATCUN peptide complexes” (Journal of Biological Inorganic Chemistry, 2024)", "system": "AGS cells (gastric adenocarcinoma)", "test": "MTT cell viability assay on AGS cells", "format": "cell-based", "settings": "AscH− 100 µM alone (negative control), 48 h", "description": "The complexes 1–3, Cu-GGH, CuCl2 and the peptides a-c, GGH alone were tested on three different cancer cell lines towards their cytotoxic activity: HeLa cells (cervical adenocarcinoma), AGS and NCI-N87 cells (both gastric adenocarcinoma). The cells were grown and treated with compounds in RPMI Medium 1640 (1×) supplemented with 10% fetal calf serum in a humidified incubator with 5% CO2 at 37 °C. MTT cell viability assays were carried out at two concentrations (100 and 250 µM) at least in duplicate (in AGS cells additionally in two independent experiments). The Annexin V-FITC apoptosis assay was carried out at a compound concentration of 500 µM in duplicate in two independent experiments.\nFor the MTT cell viability assay (Sigma Aldrich), cells were seeded at 10 000 (HeLa and AGS) and 20 000 (NCI-N87) cells/well in 96-well plates and left to settle for 24 h. […] Quantification of the formazan was ensured by a Spectramax M5 (Molecular Devices) microplate reader at an absorbance of 470 nm to determine the percentage of cell-growth inhibition of each sample (with compound) relative to a negative control (no compound). […]", "data": [{"molecule": "O=C1O[C@H]([C@@H](O)CO)C(O)=C1O", "note": "[AscH^−, sodium ascorbate]", "values": [{"measurement": "cytotoxicity of the additive alone", "result": "does not show significant cytotoxicity"}]}]}
